Experimental data reported in patent publication US7745390B2, “Antimicrobial peptides” (priority 2005, dated 2010).
Converted amounts (≈) assume the structure as drawn. Read-outs that look alike come from different tables or passages of the source. Square brackets hold non-standard residues; d marks the D form. Ends that are not written are not given here. Peptide text beside a SMILES is read from it.

Legend:
[1] = test system: B. cereus; assay type: cell-based
Summary of the method: (§1)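 Bacterial suspensions (~5×10^6 CFU/ml) and serially diluted peptides, both in low-nutrient phosphate buffer (pH 7.2, 0.03% LB), are combined and held 3 h at 37 °C. Full LB is added for overnight growth. The MIC marks no growth, and IC50 marks 50% growth relative to medium.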

[2] = test system: E. coli DH5a; assay type: cell-based
Summary of the method: as §1

[3] = test system: Salmonella; assay type: cell-based, S. typhimurium
Summary of the method: as §1

[4] = test system: bacteria; assay: Activity in DMEM and RPMI media (lysis of bacteria); assay type: cell-based; design: key to Active in DMEM: YES: Active in DMEM; a blank means no activity; conditions: Table 2; tested in DMEM and RPMI
Protocol: (§2) The CFU assay is the “gold standard” for evaluating antibiotics. Briefly, bacteria are grown overnight in rich medium, such as LB, and then diluted and grown in log phase for 2-4 hours. Cultures are set up as above, with the initial culture media being 10 mM phosphate buffer/0.03% LB; DMEM or RPMI; or DMEM or RPMI plus 10% serum (fetal calf, human, or mouse). After various periods of time, but generally 3 hours or less, aliquots are removed, diluted in LB at various dilutions, and plated on LB agar plates. Plates are incubated overnight at 37° C. and counted on an automatic colony counter.
In the column “Active in DMEM”, a blank means no activity. MAP stands for multiple antigenic peptide, where a number of identical peptide chains are synthesized and joined to a common core (like a dendrimer).
The peptides listed in Table 2 were tested in DMEM and RPMI, media that approximate blood and tissue conditions in vivo and those that were active under these conditions are listed in the last column (active in DMEM). […] No peptides that were all L-isomer peptides lysed bacteria in DMEM supplemented with serum.
The hydrophobic moment is a measure of amphipathicity and indicates how well the hydrophobic residues fall on one side of the helix while the hydrophilic residues fall on the opposite side is shown in column 7. This was determined using the Membrane Explorer Program (http://blanco.biomol.uci.edu/mpex/). A high number indicates a high hydrophobic moment. Column 8 again (like Table 2) indicates which of these peptides is active in DMEM.

[5] = test system: bacteria; assay: Activity in serum containing media (10% FCS in DMEM or RPMI); assay type: cell-based; conditions: for active in serum containing media: 10% FCS in DMEM or RPMI
Protocol: as §2
Tests were conducted in low salt concentrations so that active peptide candidates could be identified more readily. It is important for in vivo applications that the present antimicrobial peptides be active in physiological salt concentrations (150 mM) as well as in the presence of other tissue components, such as blood plasma (serum). Serum may contain proteases that destroy peptides; the use of D-amino acids can improve protease resistance. See G12.21. […] Also active were G11.6, G11.26, G11.29, G11.30, G11.34, G11.35, G12.11, G12.19, G12.20 and G12.21. […]

[6] = test system: B. cereus; assay: CFU assay in 10% FCS/DMEM; assay type: cell-based; conditions: 3 hrs
Protocol: as §2
(§3) Three preferred peptides G11.46, G12.21 and G14.15, discussed above, were further tested for antimicrobial efficacy under various conditions using the 10% FCS/DMEM assay as described under CFU assay. The incubation times with the bacteria and peptide was three hours, at which time the bacteria were diluted and plated on agar. […] The MIC for each compound is highlighted.

[7] = test system: bacterial strains; assay: organism not typed; assay type: cell-based
Protocol: as §3
Table 9 below repeats some data presented above in Tables 6, 7, and 8.

[8] = test system: E. coli; assay: CFU assay in 10% FCS/DMEM; assay type: cell-based; conditions: 3 hrs
Protocol: as §2, §3

[9] = test system: Salmonella typhimurium; assay: CFU assay in 10% FCS/DMEM; assay type: cell-based; conditions: 3 hrs
Protocol: as §2, §3

[10] = test system: Staphylococcus aureus; assay: CFU assay in 10% FCS/DMEM; assay type: cell-based; conditions: 3 hrs
Protocol: as §2, §3

[11] = 10 mM phosphate buffer, pH 7.2, 0.03% LB

CSCC[C@@H](NC(=O)[C@H](Cc1ccccc1)NC(=O)[C@@H](CCCNC(=N)N)NC(=O)[C@@H](CCCNC(=N)N)NC(=O)[C@H](CO)NC(=O)[C@H](NC(=O)[C@H](CCCNC(=N)N)NC(=O)[C@@H](N)CCCNC(=N)N)C(C)C)C(=O)N[C@@H](CCCNC(=N)N)C(=O)N[C@@H](CCCNC(=N)N)C(=O)O [Peptide G11.35, RRvSrrFmRR] (H-RR[dV]S[dR][dR]F[dM]RR-OH; N-terminus and C-terminus assumed)
B. cereus MIC ([1]; pH 7.2): >10 µM
IC50 ([1]; pH 7.2): > 10000 nM
E. coli DH5a MIC ([2]; DH5a, pH 7.2): 0.7 µM
IC50 ([2]; DH5a, pH 7.2): 410 nM
IC50 ([3]; pH 7.2): 3250 nM
Salmonella MIC ([3]; pH 7.2): 5.7 µM
Active in DMEM [4]: YES
active in serum containing media [5]: active

CN[C@H](CC(C)C)C(=O)N[C@H]1C(=O)N[C@@H](CC(N)=O)C(=O)N[C@H]2C(=O)N[C@H]3C(=O)N[C@H](C(=O)N[C@H](C(=O)O)c4cc(O)cc(O)c4-c4cc3ccc4O)[C@H](O)c3ccc(c(Cl)c3)Oc3cc2cc(c3O[C@@H]2O[C@H](CO)[C@@H](O)[C@H](O)[C@H]2O[C@H]2C[C@](C)(N)[C@H](O)[C@H](C)O2)Oc2ccc(cc2Cl)[C@H]1O [vancomycin, reference compound]
% Survival (CFU Assay) ([6]; 0.08 uM): 97.67%
% Survival (CFU Assay) ([6]; 0.16 uM): 113.37%
% Survival (CFU Assay) ([6]; 0.32 uM): 79.59%
% Survival (CFU Assay) ([6]; 0.63 uM): 63.73%
% Survival (CFU Assay) ([6]; 1.25 uM): 9.06%
% Survival (CFU Assay) ([6]; 2.5 uM): 1.09%
MIC ([7]; 3 h): > 10 µM
MIC ([7]; Bacillus cereus, ATCC53522, 3 h): 2.5 µM (≈ 3.62 µg/mL)

CRRVSRRFMRRC [G11.29 CYC]
B. cereus MIC [1, 11]: 1.39 µM
IC50 ([1]; 10 mM phosphate buffer, pH 7.2, 0.03% LB, read-out: B. cereus IC50): 890 nM
E. coli DH5a MIC [2, 11]: 1.4 µM
IC50 ([2]; 10 mM phosphate buffer, pH 7.2, 0.03% LB, read-out: E. coli DH5a IC50): 750 nM
Salmonella MIC [3, 11]: 2.8 µM
IC50 ([3]; 10 mM phosphate buffer, pH 7.2, 0.03% LB, read-out: Salmonella IC50): 1750 nM
Active in DMEM [4]: YES
active in serum containing media [5]: active

RDVSRRFMRRGSRDVSRRFMRR [Peptide G11.6]
B. cereus MIC ([1]; pH 7.2): 2.4 µM
IC50 ([1]; pH 7.2): 890 nM
E. coli DH5a MIC ([2]; DH5a, pH 7.2): 0.7 µM
IC50 ([2]; DH5a, pH 7.2): 450 nM
IC50 ([3]; pH 7.2): 890 nM
Salmonella MIC ([3]; pH 7.2): 1.4 µM
Active in DMEM [4]: YES
active in serum containing media [5]: active

RDVSRRFMRRGSRDVSRRFMRRGSRDVSRRFMRR [Peptide G11.26]
B. cereus MIC ([1]; pH 7.2): 0.35 µM
IC50 ([1]; pH 7.2): 210 nM
E. coli DH5a MIC ([2]; DH5a, pH 7.2): 0.7 µM
IC50 ([2]; DH5a, pH 7.2): 400 nM
IC50 ([3]; pH 7.2): 210 nM
Salmonella MIC ([3]; pH 7.2): 0.35 µM
Active in DMEM [4]: YES
active in serum containing media [5]: active

RRVSRPPMRRYRSRRPRRLV [Peptide G12.20]
B. cereus MIC ([1]; pH 7.2): 0.35 µM
IC50 ([1]; pH 7.2): 210 nM
E. coli DH5a MIC ([2]; DH5a, pH 7.2): 0.73 µM
IC50 ([2]; DH5a, pH 7.2): 230 nM
IC50 ([3]; pH 7.2): 420 nM
Salmonella MIC ([3]; pH 7.2): 1.4 µM
Active in DMEM [4]: YES
active in serum containing media [5]: active

RRVSRPPPRRYRSRRPRRLV [Peptide G12.19]
B. cereus MIC ([1]; pH 7.2): 0.35 µM
IC50 ([1]; pH 7.2): 210 nM
E. coli DH5a MIC ([2]; DH5a, pH 7.2): 0.75 µM
IC50 ([2]; DH5a, pH 7.2): 220 nM
IC50 ([3]; pH 7.2): 730 nM
Salmonella MIC ([3]; pH 7.2): 1.38 µM
Active in DMEM [4]: YES
active in serum containing media [5]: active

RRVSRRFMRRYRSRRPRRLV [Peptide G12.11]
B. cereus MIC ([1]; pH 7.2): 0.35 µM
IC50 ([1]; pH 7.2): 210 nM
E. coli DH5a MIC ([2]; DH5a, pH 7.2): 0.75 µM
IC50 ([2]; DH5a, pH 7.2): 210 nM
IC50 ([3]; pH 7.2): 410 nM
Salmonella MIC ([3]; pH 7.2): 0.65 µM
Active in DMEM [4]: YES
active in serum containing media [5]: active

RRVSRRPMRRYRSRRPRRLV [Peptide G12.12]
B. cereus MIC ([1]; pH 7.2): 0.35 µM
IC50 ([1]; pH 7.2): 210 nM
E. coli DH5a MIC ([2]; DH5a, pH 7.2): 0.35 µM
IC50 ([2]; DH5a, pH 7.2): 210 nM
IC50 ([3]; pH 7.2): 210 nM
Salmonella MIC ([3]; pH 7.2): 0.35 µM
Active in DMEM [4]: YES
active in physiological salt concentrations (150 mM) and presence of serum [5]: active in such conditions

gentamicin [reference compound]
% Survival (CFU Assay) ([8]; 0.08 μM): 117.89%
% Survival (CFU Assay) ([8]; 0.16 μM): 110.6%
% Survival (CFU Assay) ([8]; 0.32 μM): 87.76%
% Survival (CFU Assay) ([8]; 0.63 μM): 17.05%
% Survival (CFU Assay) ([8]; 1.25 μM): 0.21%
% Survival (CFU Assay) ([8]; 2.5 μM): 0.052%
% Survival (CFU Assay) ([9]; 0.04 μM): 119.73%
% Survival (CFU Assay) ([9]; 0.08 μM): 103.72%
% Survival (CFU Assay) ([9]; 0.16 μM): 105.73%
% Survival (CFU Assay) ([9]; 0.32 μM): 93.27%
% Survival (CFU Assay) ([9]; 0.63 μM): 70.15%
% Survival (CFU Assay) ([9]; >1.25 μM): 29.7%
% Survival (CFU Assay) ([10]; 0.04 μM): 90.73%
% Survival (CFU Assay) ([10]; 0.08 μM): 78.94%
% Survival (CFU Assay) ([10]; 0.16 μM): 59.49%
% Survival (CFU Assay) ([10]; 0.32 μM): 37%
% Survival (CFU Assay) ([10]; 0.63 μM): 28.51%
% Survival (CFU Assay) ([10]; >1.25 μM): 17.1%
MIC ([7]; E. Coli (ATCC#25922), CFU Assay in 10% FCS/DMEM (3 hrs)): 1.25 µM
MIC ([7]; Salmonella (SL1344), CFU Assay in 10% FCS/DMEM (3 hrs)): 2.5 to 5 µM
MIC ([7]; Staph A (ATCC#29213), CFU Assay in 10% FCS/DMEM (3 hrs)): >1.25 µM
